From US4547371A, “Substituted cephalosporin sulfones as anti-inflammatory and anti-degenerative agents” (Merck & Co., Inc., priority 1983, dated 1985) come the findings set out here.

The test has as its target T1, Human Polymorphonuclear Leukocyte Elastase (Homo sapiens, UniProt P08246).
T1 construct: Crude extract of human polymorphonuclear leukocytes (PMN) containing elastase activity; endogenous in cells; host or cells: human polymorphonuclear leukocytes (crude extract)
T1 sequence (P08246 30-247 limits assumed): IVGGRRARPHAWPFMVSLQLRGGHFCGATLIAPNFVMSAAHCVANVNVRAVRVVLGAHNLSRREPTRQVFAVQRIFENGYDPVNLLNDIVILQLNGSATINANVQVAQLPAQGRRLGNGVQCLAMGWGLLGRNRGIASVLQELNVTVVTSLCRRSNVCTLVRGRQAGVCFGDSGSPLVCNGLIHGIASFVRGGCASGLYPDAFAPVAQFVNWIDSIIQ
The test can be described thus: Inhibition of human polymorphonuclear leukocyte elastase via hydrolysis of N-t-Boc-alanyl-alanyl-prolyl-alanine-p-nitroanilide. The test is classed as biochemical. The following applies: effective dosage for 50% inhibition of the enzyme activity 2 minutes after zero time; crude human PMN extract, Boc-AAPAN substrate, pH 7.5, 410 mμ; read-out: ED50 (the source's name) (converted). Here is the method: Protocol--Enzyme Assays for the Inhibition of Human Polymorphonuclear Leukocyte Elastase Via Hydrolysis of N-t-Boc-alanyl-alanyl-prolylalanine-p-nitroanilide
0.05M TES (N-tris[hydroxymethyl]methyl-2-amino-ethanesulfonic acid) Buffer, pH 7.5.
0.2 mM N-t-Boc-alanyl-alanyl-prolyl-alanine-p-nitroanilide (Boc-AAPAN).
To prepare substrate, the solid (m.w. 550) was first dissolved in 10.0 ml DMSO. Buffer at pH 7.5 was then added to a final volume of 100 ml.
Crude extract of human polymorphonuclear leukocytes (PMN) containing elastase activity.
Inhibitors (cephalosporin sulfone esters) to be tested dissolved in DMSO just before use.
To 1.0 ml of 0.2 mM Boc-AAPAN in a cuvette, 0.01-0.1 ml of DMSO with or without inhibitor was added. After mixing, a measurement was taken at 410 mμ to detect any spontaneous hydrolysis due to presence of test compound. 0.05 Milliliters of PMN extract was then added and the ΔOD /min at 410 mμ was measured and recorded. Beckman model 35 spectrophotometer was used.
Results were reported as ED50, i.e., effective dosage in micrograms per milliliter (μg/ml) for 50% inhibition of the enzyme activity 2 minutes after zero time.
The elastase activity in the crude PMN extract may vary from one preparation to another. A control of each new batch is run, and the volume added in the assay procedure is adjusted according to activity.

As for `COC(=O)N[C@H]1C(=O)N2C(C(=O)OCc3ccccc3)=C(COC(C)=O)CS(=O)(=O)[C@H]12` [NHCOOCH3 / CH2 OCOCH3 / OCH2 .phi., benzyl 3-acetyloxymethyl-7α-methoxycarbonylamino-8-oxo-5-thia-1-azabicyclo[4.2.0]oct-2-ene-2-carboxylate-5,5-dioxide], the IC50 was 663 nM. For the molecule `CC(=O)OCC1=C(C(=O)OCc2ccccc2)N2C(=O)[C@H](NC(=O)C(F)(F)F)[C@H]2S(=O)(=O)C1` [NHCOCF3 / CH2 OCOCH3 / OCH2 .phi., Benzyl 3-acetyloxymethyl-7α-trifluoromethylcarbonylamino-8-oxo-5-thia-1-azabicyclo[4.2.0]oct-2-ene-2-carboxylate-5,5-dioxide], the IC50 is 81.6 nM. Regarding `CC(C)(C)OC(=O)C1=C(C(F)(F)F)CS(=O)(=O)[C@@H]2[C@@H](NC(=O)C(F)(F)F)C(=O)N12` (relative stereo) [CF3 CONH / CF3 / OtBu, t-Butyl 3-trifluoromethyl-7α-trifluoromethylcarbonylamino-8-oxo-5-thia-1-azabicyclo[4.2.0]oct-2-ene-2-carboxylate-5,5-dioxide], the IC50 is 1770 nM.

Turning to `O=C(OCc1ccccc1)C1=C(C(F)(F)F)CS(=O)(=O)[C@@H]2[C@@H](NC(=O)C(F)(F)F)C(=O)N12` (relative stereo) [CF3 CONH / CF3 / OCH2 .phi., Benzyl 3-trifluoromethyl-7α-trifluoromethylcarbonylamino-8-oxo-5-thia-1-azabicyclo[4.2.0]oct-2-ene-2-carboxylate-5,5-dioxide], the IC50 was 61.7 nM.
